The record followed here is patent US20130287688A1, “NOVEL COMPOSITIONS AND USES OF ANTI-HYPERTENSION AGENTS FOR CANCER THERAPY” (XTUIT PHARMACEUTICALS, INC., priority 2010, published 2013).

The test system of experiment [1] is Mu89 tumors. The experiment is described as follows: In vivo proliferation (Ki67 staining). Details: species or system mice. Conditions: after losartan treatment. An excerpt: (§1) Tumors were resected and stained for Ki67 to assess proliferation rates. […] There was however a significant difference in proliferation between the two tumor types, the number of Ki67 positive cells was 3 fold higher in HSTS26T tumors.
(§2) Ki67 staining was done on paraffin sections 21 days after HSV injection. Slides were microwave processed with Target Retrieval Solution (DAKO, Carpinteria, Calif.) prior to primary antibody detection. The entire tumor section was imaged at 2× magnification and reconstituted as a mosaic. Twenty regions were randomly selected in each tumor. The fraction of Ki67 positive cells in each region was determined by manual count.

Experiment [2] concerns HSTS26T tumors. Kind of experiment: In vivo proliferation (Ki67 staining). Details: species or system mice. Conditions: after losartan treatment.
Text: as §1, §2

Experiment [3] concerns FVB MMTV PyVT spontaneous mammary carcinoma. The experiment is described as follows: Collagen I immunostaining of tumor sections. The class given is in vivo, mice. Conditions: 20 mg/kg/day, two weeks (FIG. 5B). The procedure: Human soft tissue sarcoma (HSTS26T) and human melanoma (Mu89) tumors were grown subcutaneously in the legs and dorsal skin fold chamber of severe combined immunodeficient (SCID) mice (Leunig M, et al. (1992) Cancer Res 52:6553-6560). Human pancreatic adenocarcinoma cells (L3.6PL) were grown orthotopically in the pancreas of SCID mice. L3.6PL tumors were induced with a sub-capsular injection of one million cells in the tail of the pancreas. Tumor sizes were monitored in spontaneous FVB/N-Tg (MMTV-PyVT) 634MU1/J mice and tumors selected for treatment when they reached a size of 4 to 6 mm in diameter (Guy C T et al. (1992) Mol Cell Biol 12:954-961).
Cozaar (losartan potassium) tablets were ground using a mortar and pestle. The powder was then dissolved in water to obtain a concentration of 2.5 mg/ml. […]
Frozen sections were cut into 10 μm sections for immunohistochemistry and imaging. Collagen I was detected using the LF-67 antibody (1:100 dilution) with a previously described protocol (Znati C A, et al. (2003) Clin Cancer Res 9:5508-5513). TSP-1 was detected with a goat anti-human antibody (1:50 dilution), which cross-reacts with mice (sc-12312, Santa Cruz Biotechnology Inc., Santa Cruz, Calif.). […] The collagen and TSP-1 content was determined by measuring the number of pixels above a threshold value that was set based on the average intensity value of pixels from all slides under analysis. […]

The test system of experiment [4] is Mu89 tumors. The experiment is described as follows: Virus treatment and tumor growth delay. The class given is in vivo, SCID mice. The procedure: (§3) Each arm (control and treated) was subsequently divided into HSV treated and non-HSV treated groups. Tumors that had reached 60 mm^3 after two weeks were selected for i.t. HSV injections. Tumors were treated with 10 μl i.t. injections of either PBS or 2.5×10^5 transducing units (t.u.) of oncolytic HSV MGH2 (gift from E. Antonio Chiocca, Ohio State University, Columbus, Ohio). Two i.t. injections of oncolytic HSV separated by 24 hrs were administered. The injections were done with a Harvard Apparatus Standard Pump 22 infusion/withdraw syringe pump system (Holliston, Mass.) at a flow rate of 4 μl/min. Tumors were measured every 2 to 3 days. Tumor volume was estimated as: V=AB^2/2, where V is the tumor volume; A and B are the maximum and minimum diameters of the tumor as measured with calipers.

In experiment [5] the test system is HSTS26T tumors. Kind of experiment: Virus treatment and tumor growth delay. The experiment is classed as in vivo, SCID mice. The procedure:
as §3

The subject of experiment [6] is E0771 breast tumors. Kind of experiment: Tumor matrix level histology (collagen I). Also noted: species or system SCID mouse. Conditions: mouse, in vivo. As to the method:
Collagen levels were used as a metric of matrix production as described in Diop-Frimpong et al., Proc Nall Acad Sci USA. […] Next, solid stress in these tumors was measured using recently established technique described in Stylianopoulos T, et al., Growth-induced mechanical stress in murine and human tumors: causes, consequences and remedies. under review.
Vessel perfusion, matrix level, and hypoxia histology: For breast tumors, mice bearing orthotopic E0771 were split into treatment groups, time-matched for time after implantation and size-matched for tumor volume at this time (−100 mm^3). For pancreatic tumors, mice bearing orthotopic AK4.4 were split into treatment groups, size-matched for tumor volume (˜22 mm^3), 6 days after implantation. […] On the day of the last treatment, mice were slowly (−2 min) injected with 100 μL of 1 mg/mL biotinylated lectin (Vector Labs), administered retro-orbitally 5 min prior to tumor removal. For hypoxia studies, the mice were also injected with 60 mg/kg of 10 mg/mL pimonidazole 1 hr prior to tumor removal. […] For matrix staining, collagen I was detected using the LF-67 antibody provided by Dr. Larry Fisher (National Institute of Dental Research, Bethesda, Md.).
Histological image analysis: Eight random images (four interior, four periphery) at 20× magnification were taken from each slide using a confocal microscope (Olympus). […] For perfusion, the number of vessels counted by this program with colocalization of lectin and CD31 staining was divided by the number of vessels counted with CD31 staining. For vessel metrics, including diameter and density, the program determined the average size of all counted vessels and their length, as well as the count per area Images of collagen I stained sections were analyzed based on the area fraction of positive staining and on the average staining intensity (concentration) in each image. […] Images of hypoxia staining with pimonidazole were similarly analyzed for the area fraction of positive staining, counting the fraction of pixels above a threshold based on background intensity.

Experiment [7] has as its system E0771 breast tumors. The experiment is described as follows: Breast tumor growth and survival studies. The class given is in vivo, mice. As to the method:
Breast tumor growth and survival studies: Mice bearing orthotopic E0771 or 4T1 breast tumors were split into treatment groups, time-matched for time after implantation and size-matched for tumor volume at this time (110-111 mm^3 in E0771, in 4T1). […] The primary tumors were then measured every 2 days, beginning on day 0, using calipers. Tumor growth was quantified using the time for each to reach double its initial volume Animal survival was quantified based on time of death after initiation of treatment or time to reach excessive tumor burden (>1000 mm^3).

Where [8] appears, read: losartan two weeks before i.t. injection of HSV.

Molecules are shown by their SMILES.

On to `CCCCc1nc(Cl)c(CO)n1Cc1ccc(-c2ccccc2-c2nn[nH]n2)cc1` [losartan], for which the “positive Ki67 staining” value in the experiment with Mu89 tumors [1] and in the experiment on HSTS26T tumors [2] was “no statistically significant difference” throughout. In addition, the “reduction in collagen I immunostaining” value in experiment [3] turned out to be 47%. The tumor growth rate result was “did not affect” with Mu89 tumors [4] (losartan alone), “did not affect” in the experiment with HSTS26T tumors [5] (losartan alone) and “no significant effect” in the experiment with E0771 breast tumors [7] (agent given alone (losartan 40 mg/kg daily or doxorubicin 2 mg/kg every three days)). Further, the “tumor size relative to the starting treatment size” value with Mu89 tumors [4] (losartan and HSV, 4 weeks after the virus injection, all tumors) is given as 3 fold. Besides, the tumor growth result in the experiment on Mu89 tumors [4] (setting [8]) is “significantly delayed the growth”; with HSTS26T tumors [5] (setting [8]), “significantly delayed the growth”; in the experiment on E0771 breast tumors [7] (losartan in combination with doxorubicin) it was “significantly delayed”. Further, in the experiment on HSTS26T tumors [5] (losartan and HSV), the “mice whose tumor volume remained stable for up to 9 weeks” value was found to be 50%. The “concentration of collagen I (staining intensity)” value in the experiment on E0771 breast tumors [6] was “reduces”. The “matrix production, collagen I area fraction” value in the experiment on E0771 breast tumors [6] was “decreases”. Moreover, the median survival with E0771 breast tumors [7] (combination of losartan and doxorubicin, saline alone 12 days) turned out to be 23.5 days. Moreover, in the experiment on E0771 breast tumors [7] (losartan alone), the survival result was “did not shorten survival”.
